Tests used:
rat [1] = settings: intravenous injection; cited from earlier work
rat [2] = test: Urea 50% lethal dose LD50, oral
[3] = Spectral shift of ICG aqueous solutions before and after heating (J-aggregate formation and suppression); type: physicochemical
Experimental: FIG. 4 and FIG. 5 show the results of wavelength shifts based on additive concentration series. […] The axis of abscissa of each square indicates a wavelength, and values at its left and right ends are 500 nm and 950 nm, respectively, and the axis of ordinate thereof indicates an absorbance and its scale is arbitrary. The additive in this case refers to urea.
A third square from the left end corresponds to a solution to which the additive is added at a concentration one-half as high as that of the second square.
A second square from the left end corresponds to a 1.5 mM ICG aqueous solution, and an upper stage and a lower stage show spectra before and after the heating, respectively. A third square corresponds to an ICG aqueous solution having a concentration one-half as high as that of the second square.

rat [4] = settings: oral; cited from earlier work
Water solubility of urea = type: physicochemical; settings: calculated from water solubility and molecular weight 60.06
mouse = settings: intravenous injection; cited from earlier work

Row | SMILES | LD50 (rat [1]) | ratio of urea amount in 10 ml of injection at 10 M to LD50 in terms of a body weight of 50 kg (rat [2]; 6.006 g/425 g) | 50% lethal dose converted in terms of a body weight of 50 kg (rat [2]; 8.5 g/kg × 50 kg) | J-aggregation of ICG after heating with urea added ([3]; 1.5 mM ICG aqueous solution + 100 mM urea, heating at 60° C. for 30 minutes) | formation of the H-aggregate of ICG (absorption around 700 nm) with urea added ([3]; 1.5 mM ICG, urea added) | 50% lethal dose LD50 (rat [4]) | amount of urea that dissolves (molar) (Water solubility of urea) | LD50 (mouse) | J-aggregate formation of ICG in citric acid after heating ([3]; 1.5 mM ICG, citric acid 100 mM or less, free of urea, 60° C. for 30 minutes) | citric acid concentration above which agglomeration precipitation occurs ([3]; 1.5 mM ICG, free of urea, 60° C. for 30 minutes)
1 | NC(N)=O [urea] | around 5,000 mg/kg | 1.41×10^−2 | 425 g | the J-aggregation is suppressed | suppresses the formation of the H-aggregate | 8,500 mg/kg | up to 17.9 M | around 5,000 mg/kg | – | –
2 | O=C(O)CC(O)(CC(=O)O)C(=O)O [citric acid] | – | – | – | – | – | – | – | – | a J-aggregate is formed | higher than 12.5 mM
